Data published in ChEMBL document CHEMBL3885861, “Open TG-GATES”.

Organism: Rattus norvegicus
Assay: Open TG-GATES - Regimen: Daily Repeat
Type: toxicity, organism-based, Sprague-Dawley
Parameters: regimen Daily Repeat, gender Male, age 6 weeks
Details: in vivo, po, 300 mg/kg, route gavage, dose level Middle; for APTT / Bas / Eos / Fbg / Hb / Ht / Lym / MCH / MCHC / MCV / Mono / Neu / PT / Plat / RBC / Ret / WBC: tissue Blood
[1] = 72 h, tissue Kidney, time 3 day
[2] = 72 h, tissue Plasma, time 3 day

Molecule `CNC(=C[N+](=O)[O-])NCCSCc1ccc(CN(C)C)o1` [RANITIDINE] has a TERMINAL_BW (72 h, time 3 day) of 231.7 g, an APTT (72 h, time 3 day) of 20.3 s and a Bas (72 h, time 3 day) of 0%. The Eos (72 h, time 3 day) was 1%, the Fbg (72 h, time 3 day) was 234.4 mg/dL and the Hb (72 h, time 3 day) was 13.5 g/dL. For the same molecule, the Ht (72 h, time 3 day) was 39.4%, the Lym (72 h, time 3 day) was 78.8% and the MCH (72 h, time 3 day) was 21.9 pg. It also gave an MCHC (72 h, time 3 day) of 34.3%, an MCV (72 h, time 3 day) of 63.8 fL and a Mono (72 h, time 3 day) of 3.2%. It also gave a Neu (72 h, time 3 day) of 15.8%, a PT (72 h, time 3 day) of 12.4 s and a Plat (72 h, time 3 day) of 118.4 x10_4/uL. The RBC (72 h, time 3 day) was 616.4 x10_4/ul, the Ret (72 h, time 3 day) was 5.1% and the WBC (72 h, time 3 day) was 112.2 x10_2/uL. For the same molecule, the KIDNEY_L [1] was 1 g, the KIDNEY_R [1] was 1 g and the KIDNEY_TOTAL [1] was 2 g. For the same molecule, the LIVER (72 h, tissue Liver, time 3 day) was 11.1 g, the A/G [2] was 1.6 and the ALP [2] was 966.2 IU/L. The ALT [2] was 43.4 IU/L, the AST [2] was 80 IU/L and the BUN [2] was 14.8 mg/dL. For the same molecule, the CRE [2] was 0.4 mg/dL, the Ca [2] was 10.9 mg/dL and the Cl [2] was 104 meq/L. It also gave a DBIL [2] of 0.09 mg/dL, a GLC [2] of 196.6 mg/dL and an IP [2] of 7.2 mg/dL. The K [2] was 4.2 meq/L, the LDH [2] was 195.6 IU/L and the Na [2] was 141.2 meq/L. It also gave a PL [2] of 142.8 mg/dL, an RALB [2] of 3.4 g/dL and a TBIL [2] of 0.1 mg/dL. The TC [2] was 78.4 mg/dL, the TG [2] was 80 mg/dL and the TP [2] was 5.5 g/dL. It also gave a gamma-GTP [2] of 1.8 IU/L, a TERMINAL_BW ([…], time 7 day) of 260.6 g and a TERMINAL_BW ([…], time 14 day) of 309.4 g. It also gave a TERMINAL_BW ([…], time 28 day) of 391.7 g, an APTT ([…], time 7 day) of 20.6 s and a Bas ([…], time 7 day) of 0%. The Eos ([…], time 7 day) was 1%, the Fbg ([…], time 7 day) was 227.4 mg/dL and the Hb ([…], time 7 day) was 14.1 g/dL. The Ht ([…], time 7 day) was 39.9%, the Lym ([…], time 7 day) was 83.6% and the MCH ([…], time 7 day) was 22 pg. For the same molecule, the MCHC ([…], time 7 day) was 35.5%, the MCV ([…], time 7 day) was 62 fL and the Mono ([…], time 7 day) was 1.6%. For the same molecule, the Neu ([…], time 7 day) was 12.4%, the PT ([…], time 7 day) was 12.4 s and the Plat ([…], time 7 day) was 130.4 x10_4/uL. For the same molecule, the RBC ([…], time 7 day) was 644.2 x10_4/ul, the Ret ([…], time 7 day) was 4.8% and the WBC ([…], time 7 day) was 81.6 x10_2/uL. It also gave an APTT ([…], time 14 day) of 19.1 s, a Bas ([…], time 14 day) of 0% and an Eos ([…], time 14 day) of 0.8%. For the same molecule, the Fbg ([…], time 14 day) was 239.2 mg/dL, the Hb ([…], time 14 day) was 14.6 g/dL and the Ht ([…], time 14 day) was 40.6%. The Lym ([…], time 14 day) was 76.8%, the MCH ([…], time 14 day) was 21.3 pg and the MCHC ([…], time 14 day) was 36%. For the same molecule, the MCV ([…], time 14 day) was 59.2 fL, the Mono ([…], time 14 day) was 2.4% and the Neu ([…], time 14 day) was 18.4%. It also gave a PT ([…], time 14 day) of 12.1 s, a Plat ([…], time 14 day) of 117.4 x10_4/uL and an RBC ([…], time 14 day) of 687.2 x10_4/ul. For the same molecule, the Ret ([…], time 14 day) was 3.9%, the WBC ([…], time 14 day) was 111.2 x10_2/uL and the APTT ([…], time 28 day) was 21 s. For the same molecule, the Bas ([…], time 28 day) was 0%, the Eos ([…], time 28 day) was 1.2% and the Fbg ([…], time 28 day) was 216.2 mg/dL. It also gave a Hb ([…], time 28 day) of 15.3 g/dL and a Ht ([…], time 28 day) of 43.2%.
